This is an account of results in ChEMBL document CHEMBL4145446, “Development of tacrine-bifendate conjugates with improved cholinesterase inhibitory and pro-cognitive efficacy and reduced hepatotoxicity” (Eur J Med Chem, 2018).

The IC50 is the concentration that gives 50% inhibition. A higher IC50 goes with lower potency.

SMILES strings stand for the structures. Active and inactive are the calls of the source. No cut-off for these calls is given here.

One data set addresses Acetylcholinesterase (Electrophorus electricus, UniProt O42275). Nature of the data set: Inhibition of electric eel AChE using acetylthiocholine chloride as substrate preincubated for 15 mins followed by substrate addition measured every minute by Ellman's method.
Data set [1] can be described thus: Cytotoxicity against human HepG2 cells assessed as inhibition of cell viability at 50 uM by MTT assay relative to control. It counts as cell-based. The note with it: read-out: INH.
Data set [2] in a line: Cytotoxicity against rat PC12 cells assessed as inhibition of cell viability at 50 uM by MTT assay relative to control. It counts as cell-based, PC-12. The note with it: read-out: INH. For orientation: Tetrazolium dyes change colour on reduction, which living cells bring about.
The next data set deals with Cholinesterase (Equus caballus, UniProt P81908). Nature of the data set: Inhibition of equine serum BuChE using butyrylthiocholine chloride as substrate preincubated for 15 mins followed by substrate addition measured every minute by Ellman's method.
Data set [3] in a line: Cytotoxicity against human HepG2 cells assessed as inhibition of cell viability at 1 uM by MTT assay relative to control. It counts as cell-based. The conditions noted are these: read-out: INH.
The nature of data set [4]: Cytotoxicity against rat PC12 cells assessed as inhibition of cell viability at 10 uM by MTT assay relative to control. It counts as cell-based, PC-12. The note with it: read-out: INH.
A short description of data set [5]: Cytotoxicity against human HepG2 cells assessed as inhibition of cell viability at 10 uM by MTT assay relative to control. The note with it: read-out: INH. It counts as cell-based.
Data set [6] is described as follows: Cytotoxicity against rat PC12 cells assessed as inhibition of cell viability at 1 uM by MTT assay relative to control. It counts as cell-based, PC-12. The conditions noted are these: read-out: INH.
In data set [7] the test system is L02. Kind of data set: Cytotoxicity against human HL7702 cells assessed as reduction in cell viability at 1 to 10 uM by MTT assay. It counts as cell-based. The conditions noted are these: l02, 10 µM.
Data set [8] deals with Mus musculus. Nature of the data set: Effect on spatial memory performance in ICR mouse model of scopalamine-induced memory impairment assessed as total distance travelled at 20 umol equiv/kg, po pretreated for 30 mins followed by scopalamine treatment measured for 90 secs by Morris water maze test. It is filed as ADME, organism-based. The conditions noted are these: 0.025 h.

The target of data set [9] is Acetylcholinesterase (Electrophorus electricus) (UniProt O42275). Nature of the data set: Mixed-type inhibition of electric eel AChE at 25 to 100 nM using acetylthiocholine chloride as substrate preincubated for 15 mins followed by substrate addition by Lineweaver-Burk plot analysis.
Data set [10] concerns Mus musculus. Kind of data set: Hepatotoxicity in Kunming mouse assessed as increase in serum ALT level at 106 mg/kg, ig after 48 hrs by colorimetric method relative to control. It counts as toxicity, organism-based. The conditions noted are these: in vivo, po.
Data set [11] deals with Amyloid-beta precursor protein (Homo sapiens) (UniProt P05067). Kind of data set: Inhibition of human self-induced amyloid beta (1 to 42) aggregation at 20 uM after 48 hrs by uranyl acetate staining based TEM analysis.
Data set [12] has as its system L02. Nature of the data set: Induction of apoptosis in human HL7702 cells at 10 uM in presence of PI3K inhibitor LY294002 by FITC staining based flow cytometry relative to control. It is filed as cell-based. The conditions noted are these: l02, 10 µM.
Data set [13] relates to Mus musculus. Nature of the data set: Effect on spatial memory performance in ICR mouse model of scopalamine-induced memory impairment assessed as swimming speed at 20 umol equiv/kg, po pretreated for 30 mins followed by scopalamine treatment measured for 90 secs by Morris water maze test. It is filed as ADME, organism-based. The conditions noted are these: 0.025 h.
In data set [14] the test system is Mus musculus. Nature of the data set: Hepatotoxicity in Kunming mouse assessed as increase in serum ASAT level at 106 mg/kg, ig after 48 hrs by colorimetric method relative to control. It is filed as toxicity, organism-based. The conditions noted are these: in vivo, po.
Data set [15] deals with Mus musculus. Kind of data set: Hepatotoxicity in Kunming mouse assessed as histomorphological changes in liver at 106 mg/kg, ig after 48 hrs by H and E staining based assay. It counts as toxicity, organism-based. The conditions noted are these: in vivo, po.
For data set [16], the system named is Mus musculus. Nature of the data set: Cognition enhancing effect in ICR mouse model of scopalamine-induced memory impairment assessed as improvement in target quadrant preference at 20 umol equiv/kg, po pretreated for 30 mins followed by scopalamine treatment measured on day 15 by Morris water maze test. It counts as functional, organism-based.
Data set [17] relates to Mus musculus. Kind of data set: Hepatotoxicity in Kunming mouse assessed as inflammatory cell infiltration in liver at 35 mg/kg, ig cotreated with THA after 48 hrs by H and E staining based assay. It is filed as toxicity, organism-based. The note with it: in vivo, po.
Data set [18] concerns Mus musculus. Nature of the data set: Hepatotoxicity in Kunming mouse assessed as serum ASAT level at 106 mg/kg, ig after 48 hrs by colorimetric method (reference value: 101.5 +/- 22.3 U/L). It is filed as toxicity, organism-based. The note with it: in vivo, po.
The target of data set [19] is Cholinesterase (Equus caballus) (UniProt P81908). Nature of the data set: Inhibition of equine serum BuChE at 50 uM using butyrylthiocholine chloride as substrate preincubated for 15 mins followed by substrate addition measured every minute by Ellman's method. For orientation: DTNB colorimetry detects thiols as they appear.
Data set [20] relates to Mus musculus. Nature of the data set: Hepatotoxicity in Kunming mouse assessed as serum ALT level at 106 mg/kg, ig cotreated with THA after 48 hrs by colorimetric method (reference value: 42.7 +/- 6.3 U/L). It counts as toxicity, organism-based. The conditions noted are these: in vivo, po.
The subject of data set [21] is Mus musculus. Kind of data set: Hepatotoxicity in Kunming mouse assessed as serum ALT level at 106 mg/kg, ig after 48 hrs by colorimetric method (reference value: 42.7 +/- 6.3 U/L). It is filed as toxicity, organism-based. The note with it: in vivo, po.
The test system of data set [22] is Mus musculus. Nature of the data set: Hepatotoxicity in Kunming mouse assessed as serum ASAT level at 106 mg/kg, ig cotreated with THA after 48 hrs by colorimetric method (reference value: 101.5 +/- 22.3 U/L). It is filed as toxicity, organism-based. The conditions noted are these: in vivo, po.
Data set [23] deals with Acetylcholinesterase (Electrophorus electricus) (UniProt O42275). Kind of data set: Inhibition of electric eel AChE at 50 uM using acetylthiocholine chloride as substrate preincubated for 15 mins followed by substrate addition measured every minute by Ellman's method.

Sequence of Cholinesterase (P81908 whole entry): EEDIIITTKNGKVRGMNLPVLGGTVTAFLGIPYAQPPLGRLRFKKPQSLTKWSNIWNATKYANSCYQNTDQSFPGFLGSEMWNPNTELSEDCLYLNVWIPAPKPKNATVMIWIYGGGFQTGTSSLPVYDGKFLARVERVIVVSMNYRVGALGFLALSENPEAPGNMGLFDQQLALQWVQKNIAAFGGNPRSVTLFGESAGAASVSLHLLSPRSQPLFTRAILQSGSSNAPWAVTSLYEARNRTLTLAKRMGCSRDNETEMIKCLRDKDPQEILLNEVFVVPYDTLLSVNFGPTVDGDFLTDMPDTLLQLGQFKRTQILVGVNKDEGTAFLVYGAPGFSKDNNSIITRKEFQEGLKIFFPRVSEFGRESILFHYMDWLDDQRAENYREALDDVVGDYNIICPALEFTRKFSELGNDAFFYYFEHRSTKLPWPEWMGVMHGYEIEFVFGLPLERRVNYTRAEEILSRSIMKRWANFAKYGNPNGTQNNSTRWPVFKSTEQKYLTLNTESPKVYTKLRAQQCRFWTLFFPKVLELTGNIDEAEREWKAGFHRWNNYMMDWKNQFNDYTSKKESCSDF
Sequence of Acetylcholinesterase (O42275 whole entry): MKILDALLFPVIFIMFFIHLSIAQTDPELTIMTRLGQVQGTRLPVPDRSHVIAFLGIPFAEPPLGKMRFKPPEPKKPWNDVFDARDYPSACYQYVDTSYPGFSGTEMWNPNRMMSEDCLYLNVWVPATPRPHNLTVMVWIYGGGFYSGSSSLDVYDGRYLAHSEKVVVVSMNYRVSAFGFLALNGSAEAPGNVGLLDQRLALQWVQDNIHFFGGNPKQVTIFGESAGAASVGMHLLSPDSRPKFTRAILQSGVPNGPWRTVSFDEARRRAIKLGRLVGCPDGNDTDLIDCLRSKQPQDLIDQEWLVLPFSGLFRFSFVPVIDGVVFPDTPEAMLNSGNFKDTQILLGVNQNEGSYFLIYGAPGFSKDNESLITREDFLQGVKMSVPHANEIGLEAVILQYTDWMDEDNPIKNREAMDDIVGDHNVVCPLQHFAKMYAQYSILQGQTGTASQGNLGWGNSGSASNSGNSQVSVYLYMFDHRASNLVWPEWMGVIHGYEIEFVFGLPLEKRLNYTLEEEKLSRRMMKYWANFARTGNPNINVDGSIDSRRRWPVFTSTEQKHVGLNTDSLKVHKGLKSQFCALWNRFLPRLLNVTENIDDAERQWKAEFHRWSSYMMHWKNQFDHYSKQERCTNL
Sequence of Amyloid-beta precursor protein (Homo sapiens) (P05067 whole entry): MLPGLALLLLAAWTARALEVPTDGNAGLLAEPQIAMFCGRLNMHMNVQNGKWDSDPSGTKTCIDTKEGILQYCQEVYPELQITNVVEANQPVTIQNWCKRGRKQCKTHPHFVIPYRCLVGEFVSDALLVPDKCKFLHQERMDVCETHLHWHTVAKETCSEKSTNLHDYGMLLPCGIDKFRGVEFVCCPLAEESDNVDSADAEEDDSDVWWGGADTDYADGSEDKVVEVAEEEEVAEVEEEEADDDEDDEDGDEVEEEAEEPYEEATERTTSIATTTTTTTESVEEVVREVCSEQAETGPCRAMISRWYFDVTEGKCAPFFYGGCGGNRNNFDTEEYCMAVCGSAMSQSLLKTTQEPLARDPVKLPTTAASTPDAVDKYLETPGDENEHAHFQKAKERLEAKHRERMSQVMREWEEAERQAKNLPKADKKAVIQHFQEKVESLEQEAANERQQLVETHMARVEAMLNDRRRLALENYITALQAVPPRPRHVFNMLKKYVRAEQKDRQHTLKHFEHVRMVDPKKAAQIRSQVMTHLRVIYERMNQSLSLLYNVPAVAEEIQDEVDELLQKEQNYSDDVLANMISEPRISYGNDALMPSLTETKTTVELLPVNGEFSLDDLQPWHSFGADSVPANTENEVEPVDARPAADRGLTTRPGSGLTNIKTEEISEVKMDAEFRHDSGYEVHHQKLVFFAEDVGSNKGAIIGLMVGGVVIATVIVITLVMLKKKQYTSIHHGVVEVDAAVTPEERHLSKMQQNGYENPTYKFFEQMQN
Sequence of Acetylcholinesterase (Electrophorus electricus) (O42275 24-633 limits assumed): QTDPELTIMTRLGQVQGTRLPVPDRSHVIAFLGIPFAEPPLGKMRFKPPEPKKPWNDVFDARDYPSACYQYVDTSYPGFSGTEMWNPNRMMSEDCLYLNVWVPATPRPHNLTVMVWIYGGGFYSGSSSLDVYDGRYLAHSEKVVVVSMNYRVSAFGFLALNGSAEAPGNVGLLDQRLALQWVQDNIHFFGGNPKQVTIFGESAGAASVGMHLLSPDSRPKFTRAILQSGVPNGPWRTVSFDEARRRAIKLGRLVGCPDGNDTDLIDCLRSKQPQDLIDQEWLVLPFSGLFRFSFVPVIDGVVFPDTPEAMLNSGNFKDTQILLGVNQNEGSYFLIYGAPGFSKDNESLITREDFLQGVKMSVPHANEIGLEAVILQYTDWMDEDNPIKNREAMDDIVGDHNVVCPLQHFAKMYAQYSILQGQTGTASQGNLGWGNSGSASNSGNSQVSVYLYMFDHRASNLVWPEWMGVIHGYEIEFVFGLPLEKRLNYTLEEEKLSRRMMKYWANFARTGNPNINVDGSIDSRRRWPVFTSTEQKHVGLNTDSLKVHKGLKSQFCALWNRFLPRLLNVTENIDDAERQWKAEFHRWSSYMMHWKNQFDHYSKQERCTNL
Sequence of Cholinesterase (Equus caballus) (P81908 whole entry): as the sequence (P81908 whole entry) above

Consider `COC(=O)c1cc(OC)c2c(c1-c1c(C(=O)NCCCCNc3c4c(nc5ccccc35)CCCC4)cc(OC)c3c1OCO3)OCO2`, for which the IC50 against Acetylcholinesterase amounted to 923 nM; against Cholinesterase, 75.5 nM. In addition, the cytotoxicity at 50 µM is 19.5% in data set [1] and 19.3% in data set [2]. For the same compound, the cytotoxicity at 1 µM in data set [3] and in [6] was less than 5% each time. Moreover, the cytotoxicity at 10 µM in data set [4] was less than 5%; in [5], 11.9%.
Regarding `COC(=O)c1cc(OC)c2c(c1-c1c(C(=O)NCCCCCCNc3c4c(nc5ccccc35)CCCC4)cc(OC)c3c1OCO3)OCO2`, the half-maximal inhibitory concentration (IC50) stood at 616 nM at Acetylcholinesterase and 4.02 nM on Cholinesterase. In addition, the results for the cytotoxicity at 50 µM in data set [1] and in [2] were 34.4% and 27.3%, respectively. For the same compound, the cytotoxicity at 1 µM in data set [3] is less than 5%; in [6] it was 5.26%. In addition, the cytotoxicity at 10 µM in [4] and in data set [5] was less than 5% each time.
Take `COC(=O)c1cc(OC)c2c(c1-c1c(C(=O)NCCCCCCCCNc3c4c(nc5ccccc35)CCCC4)cc(OC)c3c1OCO3)OCO2`: the IC50 amounted to 945 nM at Acetylcholinesterase and 6.5 nM at Cholinesterase. Also, the figures for the cytotoxicity at 50 µM in data set [1] and in [2] were 51.9% and 38.9%, respectively. The cytotoxicity at 1 µM in [3] was 5.81%; in [6], less than 5%. For the same compound, the figures for the cytotoxicity at 10 µM in data set [4] and in data set [5] were less than 5% and 9.53%, respectively.
With `COC(=O)c1cc(OC)c2c(c1-c1c(C(=O)NCCCCCCCCCCNc3c4c(nc5ccccc35)CCCC4)cc(OC)c3c1OCO3)OCO2`, the values for the IC50 against Acetylcholinesterase and on Cholinesterase were 27.3 nM and 8.63 nM, respectively. The Activity result in the data set on L02 [7] is reported as “Non-Toxic”; in the data set on Mus musculus [8], “Non-Toxic”; in the data set on L02 [12] it was 14.1%; in the data set on Mus musculus [13], “Non-Toxic”; with Mus musculus [15], “Non-Toxic”. In addition, the inhibition result in data set [9] and in data set [11] was “Active” throughout. Also, the cytotoxicity at 50 µM in data set [1] was found to be 23.1%; in data set [2], 7.84%. Besides, the “fold change (FC)” value in the data set on Mus musculus [10] and in the data set on Mus musculus [14] was 1.1 in each case. Besides, the cytotoxicity at 1 µM in data set [3] is 6.71%; in [6], less than 5%. In addition, the cytotoxicity at 10 µM in data set [4] is less than 5%; in data set [5] it was 10.8%. For the same compound, the result in the data set on Mus musculus [16] was Active.
In the case of `COC(=O)c1cc(OC)c2c(c1-c1c(C(=O)NCCCCCCCCCCCCNc3c4c(nc5ccccc35)CCCC4)cc(OC)c3c1OCO3)OCO2`, the IC50 came out at 52.1 nM against Acetylcholinesterase and 35.3 nM against Cholinesterase. Moreover, the cytotoxicity at 50 µM in [1] was determined as 46.1%; in data set [2] it was 7.76%. For the same compound, the cytotoxicity at 1 µM was 7.35% in [3] and less than 5% in [6]. In addition, the results for the cytotoxicity at 10 µM in data set [4] and in [5] were less than 5% and 13.8%, respectively.
As to `COC(=O)c1cc(OC)c2c(c1-c1c(C(=O)OC)cc(OC)c3c1OCO3)OCO2` [BIFENDATE], the IC50 against Acetylcholinesterase and against Cholinesterase was more than 50000 nM in each case. Further, the Activity result in the data set with Mus musculus [17] is reported as “Non-Toxic”; in the data set with Mus musculus [18], 105 U/L; in the data set on Mus musculus [20], 41.9 U/L; in the data set with Mus musculus [21], 39.3 U/L; with Mus musculus [22], 110 U/L; with Mus musculus [15], “Non-Toxic”. Also, the inhibition result in data set [19] and in data set [23] was “inactive” throughout. Besides, the cytotoxicity at 50 µM in data set [1] came to 11.6%; in data set [2], 7.21%. For the same compound, the cytotoxicity at 1 µM in [3] and in data set [6] was less than 5% each time. Further, the cytotoxicity at 10 µM in data set [4] was less than 5%; in data set [5], 8.45%.
Take `COc1cc(/C=C/C(=O)CC(=O)/C=C/c2ccc(O)c(OC)c2)ccc1O`: in data set [11], the inhibition entry was “Active”.
